Test system: JEKO-1
Assay: cells
Design: species or system cell viability; MTT cell viability assay, absorbance 570/650 nm; IC50 by linear interpolation of concentration-response curve
Conditions: Homo sapiens, JeKo-1, 48 h; read-out: IC 50 values
Procedure: Supplementary file pone.0015479.s006.doc: Table S2 A list of compounds tested in this study. JEKO-1 cells were treated with each of the listed compounds at concentrations ranging from 1.25 µM to […]. Cell viability was determined by the MTT assay and used to obtain concentration-response curve. IC50 was extracted by linear interpolation. Click here for additional data file. HeLa and 293T cells from ATCC were maintained according to the standard procedures. JEKO-1 cells were kept in RPMI, 10% FCS as previously described. NOXA and control stable knock-down JEKO-1 cells were described previously. PBMC from normal volunteers were obtained from the Department of Transfusion Medicine, NIH and PBMC from CLL patients were obtained under NIH protocol 97-C-0178 with informed consent. Transfection was done with lipofectamine 2000 (Invitrogen) for 293T accordingly to manufacture's instruction. Pulse chase and denaturing immunoprecipitation were carried out as described previously, [48]. Subcellular fractionation experiments were carried out as previously described. Briefly, HeLa cells were harvested and washed with phosphate-buffered saline. Cells were then treated on ice with the buffer PB (25 mM Hepes, pH 7.2, 115 mM potassium acetate, 5 mM sodium acetate, 2.5 mM magnesium acetate, 0.5 mM EGTA, and a protease inhibitor cocktail) that also contain 0.028% digitonin. Cells were centrifuged at 20,000×g for 10 min. The cytosolic supernatant fraction was removed and the nucleus and membrane pellet fraction was washed twice with the PB buffer. The pellet fraction was finally resuspended in the PB buffer. The fluorescence intensity in these fractions was measured by the Victor 3 plate reader using the Ex482 and Em523 filter set. […] After 4 h incubation, the sample absorbance at 570 nm and […] were measured using a Victor 3 plate reader (Perkin Elmer, Waltham, MA) and ratio of drug-treated samples vs. the untreated control was used to determine cell viability. […] Fluorescence labeled secondary antibodies (Invitrogen, Carlsbad, CA) were used for detection. […]

Row | SMILES | IC50
1 | O=C(CCCC[C@@H]1SC[C@@H]2NC(=O)N[C@@H]21)N/N=C/C=C/c1ccc([N+](=O)[O-])o1 [CBU-032] | 25 µM
2 | CN(C)c1ccc(/C=C/C=N/NC(=O)CN2C(=O)N(c3ccc(Cl)cc3)C(N(O)C(=O)Nc3ccc(Cl)cc3)C2(C)C)cc1 (stereo not drawn) [CBU-059] | > 40 µM
3 | CC1(C)C(N(O)C(=O)Nc2ccc(Cl)cc2)N(c2ccc(Cl)cc2)C(=O)N1CC(=O)N/N=C/C=C/c1ccc([N+](=O)[O-])o1 (stereo not drawn) [EerI, Eeyarestatin I] | 3.5 µM
